Each block holds one compound with its values, some of them ahead of it.
Assays:
[1] = molecular target: T1, recombinant human ETA receptors (Homo sapiens, UniProt P25101); experiment: Inhibition of endothelin binding on recombinant human ETA receptors expressed in CHO cells ([125I]ET-1, whole attached cells); parameters: expressed in transfected cells; host or cells: CHO cells; conditions: 35 pM [125I]ET-1, 2 h, 22° C.
T1 sequence (P25101 21-427): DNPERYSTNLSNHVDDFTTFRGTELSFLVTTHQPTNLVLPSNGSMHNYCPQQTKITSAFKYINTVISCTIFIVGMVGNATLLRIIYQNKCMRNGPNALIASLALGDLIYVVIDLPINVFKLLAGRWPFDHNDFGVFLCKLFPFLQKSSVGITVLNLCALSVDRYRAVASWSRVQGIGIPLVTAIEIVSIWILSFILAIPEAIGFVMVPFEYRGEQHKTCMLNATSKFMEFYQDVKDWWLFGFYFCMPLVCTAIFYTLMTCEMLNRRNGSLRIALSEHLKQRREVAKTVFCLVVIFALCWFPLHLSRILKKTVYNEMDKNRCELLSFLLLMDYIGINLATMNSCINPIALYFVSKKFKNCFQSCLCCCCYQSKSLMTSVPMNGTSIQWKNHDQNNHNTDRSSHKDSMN
Method: II. […] Cell culture. CHO cells, expressing recombinant human ETA receptor are grown in Minimal Essential Alpha Medium (Gibco Laboratories, Paisley, Scotland) supplemented with 0.1 μM methotrexate, 5% dialyzed fetal calf serum, 100 U/ml of penicillin and 100 μg/ml of streptomycin. Binding assays with whole attached cells are performed in 500 μl Dulbecco's Eagle medium (DMEM) containing 2 mg/ml bovine serum albumin and 25 mM Hepes. After incubation (2 h, 22° C.) in the presence of 35 pM [^125 I]ET-1 and increasing concentrations of various antagonists, the cells are extensively washed and finally solubilized in 1% (w/v) SDS, 0.5 M NaOH and 100 mM EDTA. Each assay is performed three times in triplicates and non specific binding is assessed in the presence of 100 nM unlabelled ET-1. Specific binding is defined as the difference between total binding and non specific binding. IC50 values are determined after logit/log transformation of the binding data.

[2] = molecular target: T1, recombinant human ETA receptors; experiment: Inhibition of endothelin binding to recombinant human ETA receptors expressed in baculovirus-infected insect cells (125I-endothelin); conditions: 125I-endothelin 20 pM; baculovirus-infected insect cell membranes; 20° C. for 2 hours or 4° C. for 24 hours
Method: I. […] A cDNA coding for human ETA receptors of human placenta was cloned ([…]. Yang, Y. Furuichi and C. Miyamoto, BBRC 180, 1265-1272) and expressed in the Baculovirus-insect cell system. Baculovirus-infected insect cells from a 23 1 fermenter are centrifuged off (3000×g, 15 minutes, 4° C.) 60 hours after the infection, re-suspended in Tris buffer (5 mM, pH 7.4, 1 mM MgCl2) and again centrifuged. After a further re-suspension and centrifugation the cells are suspended in 800 ml of the same buffer and […] at -120° C. The cells disintegrate when the suspension in this hypotonic buffer mixture is thawed. After a repeated […]/thawing cycle the suspension is homogenised and centrifuged (25000×g, 15 minutes, 4° C.). After suspension in Tris buffer (75 mM, pH 7.4, 25 mM MgCl2, 250 mM sucrose) 1 ml aliquots (protein content about 3.5 mg/ml) are stored at -85° C. […] The incubation is carried out at 20° C. for 2 hours or at 4° C. for 24 hours. The separation of free and membrane-bound radio-ligands is carried out by filtration over a glass fibre filter.

[3] = Pharmacokinetics of the endothelin receptor antagonists after oral gavage in rats; format: in vivo; conditions: rat, plasma, 5 mg/kg in DMSO, Wistar rats, bioassay; for AUC: read-out: Area under the plasma concentration time curve; for Cmax: read-out: Peak concentration in rat plasma
Method: IV. […] The test compounds were dissolved in DMSO at a concentration of 5 mg/mL and administered orally by gavage at a dose of 1 mL/kg body weight corresponding to 5 mg/kg body weight. Two rats were administered per test compound. Blood samples were collected from the retro-orbital sinus at 1 and 5 h post dose in one rat, and at 3 and 7 h post dose in the other rat. In addition a terminal 24 h blood sample was collected from both rats by heart puncture. Blood was collected on EDTA-NaF. Plasma was derived by centrifugation at 2000 g at +4° C. for 15 min. Plasma samples were assayed for active drug related material with a bioassay, based on the binding competition of tested compounds and ^125 I ET-1 on recombinant ETA receptors. Quantitation of plasma samples was by comparison to a calibration curve build up from control rat plasma spiked with known concentrations of the test compounds.

isolated rat aorta rings = molecular target: T2, isolated rat aorta rings (Rattus norvegicus, UniProt P26684); experiment: Inhibition of endothelin-induced contractions in isolated rat aorta rings; parameters: species or system adult Wistar-Kyoto rats; conditions: rat aorta rings without endothelium, 37° C.; endothelin-1 cumulative; from dose ratio; read-out: pA2 (converted)
T2 construct: Rings with a length of 5 mm were cut out from the thorax aorta of adult Wistar-Kyoto rats; from tissue; host or cells: thoracic aorta of adult Wistar-Kyoto rats, endothelium removed
T2 sequence (P26684 21-426): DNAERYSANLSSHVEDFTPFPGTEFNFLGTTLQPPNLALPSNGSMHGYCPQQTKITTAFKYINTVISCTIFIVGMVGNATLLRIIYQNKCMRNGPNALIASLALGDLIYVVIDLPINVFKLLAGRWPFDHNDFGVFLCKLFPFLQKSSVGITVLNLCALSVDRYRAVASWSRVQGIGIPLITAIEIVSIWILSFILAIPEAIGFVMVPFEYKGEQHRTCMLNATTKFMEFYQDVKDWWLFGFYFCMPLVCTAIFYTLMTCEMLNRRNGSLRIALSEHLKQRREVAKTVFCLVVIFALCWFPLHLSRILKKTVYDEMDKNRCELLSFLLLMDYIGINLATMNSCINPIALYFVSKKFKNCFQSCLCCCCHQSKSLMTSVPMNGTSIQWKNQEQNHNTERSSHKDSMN
Method: Rings with a length of 5 mm were cut out from the thorax aorta of adult Wistar-Kyoto rats. The endothelium was removed by lightly rubbing the internal surface. Each ring was immersed at 37° C. in 10 ml of Krebs-Henseleit solution in an isolated bath while gassing with 95% O2 and 5% CO2. The isometric stretching of the rings was measured. The rings were stretched to a pre-tension of 3 g.
The corresponding pA2 value, which is a measure of the activity of the test compound, was calculated using a computer programme according to the following equation from the "dose ratio" DR for each individual dosage-activity curve.
pA2 =log(DR-1)-log(antagonist-concentration)

IC50 [1]: ≤ 0.01 µM
SMILES: COC(=O)COc1cccc(-c2nc(NS(=O)(=O)c3ccc(C)cn3)c(Oc3ccccc3OC)c(OC)n2)c1 [Example 2, {3-[4-methoxy-5-(2-methoxy-phenoxy)-6-(5-methyl-pyridine-2-sulfonylamino)-pyrimidin-2-yl]-phenoxy}-acetic acid methyl ester]

IC50 [2]: ≤ 0.05 µM
SMILES: C=C(C)c1ccc(S(=O)(=O)Nc2nc(-c3cccc(O)c3)nc(OC)c2Oc2ccccc2OC)nc1 [Example 15, 5-isopropenyl-pyridine-2-sulfonic acid [2-(3-hydroxy-phenyl)-6-methoxy-5-(2-methoxy-phenoxy)-pyrimidin-4-yl]-amide]

AUC [3]: ≥ 10 µg·h/mL
Cmax [3]: ≥ 1.5 µg/mL
IC50 [1]: ≤ 0.01 µM
SMILES: COc1ccccc1Oc1c(NS(=O)(=O)c2ccc(C)cn2)nc(-c2ccnc(C#N)c2)nc1OC [Example 19, 5-methyl-pyridine-2-sulfonic acid [2-(2-cyano-pyridin-4-yl)-6-methoxy-5-(2-methoxy-phenoxy)-pyrimidin-4-yl]-amide]

AUC [3]: ≥ 10 µg·h/mL
Cmax [3]: ≥ 1.5 µg/mL
IC50 [2]: ≤ 0.05 µM
SMILES: COC(=O)c1cc(-c2nc(NS(=O)(=O)c3ccc(C)cn3)c(Oc3ccccc3OC)c(OC)n2)ccn1 [Example 22, 4-[4-methoxy-5-(2-methoxy-phenoxy)-6-(5-methyl-pyridine-2-sulfonylamino)-pyrimidin-2-yl]-pyridine-2-carboxylic acid methyl ester]

IC50 [2]: ≤ 0.05 µM
SMILES: COc1ccccc1Oc1c(NS(=O)(=O)c2ccc(C)cn2)nc(-c2ccnc(C(=O)OCCO)c2)nc1OC [Example 25, 4-[4-methoxy-5-(2-methoxy-phenoxy)-6-(5-methyl-pyridine-2-sulfonylamino)-pyrimidin-2-yl]-pyridine-2-carboxylic acid 2-hydroxy-ethyl ester]

IC50 [1]: ≤ 0.01 µM
IC50 [2]: ≤ 0.05 µM
SMILES: COc1ccccc1Oc1c(NS(=O)(=O)c2ccc(C)cn2)nc(-c2ccnc(CO)c2)nc1OC [Example 29, 5-methyl-pyridine-2-sulfonic acid [2-(2-hydroxymethyl-pyridin-4-yl)-6-methoxy-5-(2-methoxy-phenoxy)-pyrimidin-4-yl]-amide]

IC50 [1]: ≤ 0.01 µM
SMILES: COc1ccccc1Oc1c(NS(=O)(=O)c2ccc(C)cn2)nc(-c2ccnc(CNC(C)=O)c2)nc1OC [Example 30, N-{4-[4-methoxy-5-(2-methoxy-phenoxy)-6-(5-methyl-pyridine-2-sulfonylamino)-pyrimidin-2-yl]-pyridin-2-ylmethyl}-acetamide]

IC50 [2]: ≤ 0.05 µM
SMILES: CCS(=O)(=O)NCc1cc(-c2nc(NS(=O)(=O)c3ccc(C)cn3)c(Oc3ccccc3OC)c(OC)n2)ccn1 [Example 32, 5-methyl-pyridine-2-sulfonic acid [2-[2-(ethanesulfonylamino-methyl)-pyridin-4-yl]-6-methoxy-5-(2-methoxy-phenoxy)-pyrimidin-4-yl]-amide]

IC50 [2]: ≤ 0.05 µM
SMILES: COc1ccccc1Oc1c(NS(=O)(=O)c2ccc(C)cn2)nc(-c2ccnc(C(=N)NO)c2)nc1OC [Example 34, N-hydroxy-4-[4-methoxy-5-(2-methoxy-phenoxy)-6-(5-methyl-pyridine-2-sulfonylamino)-pyrimidin-2-yl]-pyridine-2-carboxamidine]

AUC [3]: ≥ 10 µg·h/mL
Cmax [3]: ≥ 1.5 µg/mL
Kb (isolated rat aorta rings): ≤ 0.00631 µM
SMILES: COc1ccccc1Oc1c(NS(=O)(=O)c2ccc(C)cn2)nc(-c2ccnc(-c3noc(C)n3)c2)nc1OC [Example 35, 5-methyl-pyridine-2-sulfonic acid {6-methoxy-5-(2-methoxy-phenoxy)-2-[2-(5-methyl-[1,2,4]oxadiazol-3-yl)-pyridin-4-yl]-pyrimidin-4-yl}-amide]

IC50 [1]: ≤ 0.01 µM
SMILES: COc1ccccc1Oc1c(NS(=O)(=O)c2ccc(C)cn2)nc(-c2ccnc(OCCO)c2)nc1OC [Example 36, 5-methyl-pyridine-2-sulfonic acid [2-[2-(2-hydroxy-ethoxy)-pyridin-4-yl]-6-methoxy-5-(2-methoxy-phenoxy)-pyrimidin-4-yl]-amide]

IC50 [2]: ≤ 0.05 µM
SMILES: CCOc1cc(-c2nc(NS(=O)(=O)c3ccc(C)cn3)c(Oc3ccccc3OC)c(OC)n2)ccn1 [Example 38, 5-methyl-pyridine-2-sulfonic acid [2-(2-ethoxy-pyridin-4-yl)-6-methoxy-5-(2-methoxy-phenoxy)-pyrimidin-4-yl]-amide]

Kb (isolated rat aorta rings): ≤ 0.00631 µM
SMILES: COc1ccccc1Oc1c(NS(=O)(=O)c2ccc(C(C)C)cn2)nc(-c2ccnc(CO)c2)nc1OC [Example 44, 5-isopropyl-pyridine-2-sulfonic acid [2-(2-hydroxymethyl-pyridin-4-yl)-6-methoxy-5-(2-methoxy-phenoxy)-pyrimidin-4-yl]-amide]

IC50 [2]: ≤ 0.05 µM
SMILES: CNC(=O)c1cc(-c2nc(NS(=O)(=O)c3ccc(C(C)C)cn3)c(Oc3ccccc3OC)c(OC)n2)ccn1 [Example 48, 4-[4-(5-isopropyl-pyridine-2-sulfonylamino)-6-methoxy-5-(2-methoxy-phenoxy)-pyrimidin-2-yl]-pyridine-2-carboxylic acid methylamide]

IC50 [2]: ≤ 0.05 µM
SMILES: COc1ccccc1Oc1c(NS(=O)(=O)c2ccc(C(C)C)cn2)nc(-c2ccnc(C(=O)N(C)C)c2)nc1OC [Example 51, 4-[4-(5-isopropyl-pyridine-2-sulfonylamino)-6-methoxy-5-(2-methoxy-phenoxy)-pyrimidin-2-yl]-pyridine-2-carboxylic acid dimethylamide]

IC50 [2]: ≤ 0.05 µM
SMILES: COc1ccccc1Oc1c(NS(=O)(=O)c2ccc(C(C)C)cn2)nc(-c2ccnc(-c3noc(C)n3)c2)nc1OC [Example 56, 5-isopropyl-pyridine-2-sulfonic acid {6-methoxy-5-(2-methoxy-phenoxy)-2-[2-(5-methyl-[1,2,4]oxadiazol-3-yl)-pyridin-4-yl]-pyrimidin-4-yl}-amide]

Kb (isolated rat aorta rings): ≤ 0.00631 µM
SMILES: COc1ccccc1Oc1c(NS(=O)(=O)c2ccc(C(C)C)cn2)nc(-c2ccnc(OCCO)c2)nc1OC [Example 57, 5-isopropyl-pyridine-2-sulfonic acid [2-[2-(2-hydroxy-ethoxy)-pyridin-4-yl]-6-methoxy-5-(2-methoxy-phenoxy)-pyrimidin-4-yl]-amide]

Source: patent US6242601A, “Heterocyclic sulfamides” (Hoffman-La Roche Inc., priority 1999, dated 2001)
